From patent US20250339391A1, “METHODS FOR EFFECTIVE MANAGEMENT OF PAIN” (South Rampart Pharma, Inc., priority 2024, published 2025)
“Also recorded” adds a separate entry of the source.

Experiments:
CD1 mice = details: for signs of hepatotoxicity: CD-1 mice; for animals dead in 48 hours: FIG. 1F experiment, data not shown
Experimental: After drug administration, animals were returned to their respective cages and maintained with food and water provided ad libitum for the next 12 h. Animals were then euthanized under 5% isoflurane anesthesia after 12 h, and whole blood samples were collected transcardially in sterile microcentrifuge tubes without anti-coagulants. Whole blood samples were stored at room temperature (25° C.) for 30 min, allowing them to coagulate, which was centrifuged at 1,000 g for 5 min at 4° C. to isolate serum samples from whole blood, which were collected, aliquoted, and stored at −80° C. for identification of NAPQI, and liver function tests (LFTs).
LFTs were done on fresh serum samples, and not on thawed frozen serum samples to avoid denaturing LFT transaminases due to freeze/thaw of frozen serum.
Employing a consistent lethal dose for both compounds streamline the experimental design and facilitates data interpretation. This approach aligns with FDA guidelines on Bioequivalence and Bioavailability studies for estimating the maximum safe starting dose in humans, a strategy further substantiated by others. At 12 h post-injection, mice were deeply anesthetized under 5% isoflurane for more than 5 min and formalin-fixed via transcardial perfusion with 10% Neutral Buffered Formalin (NBF) after exsanguination using 0.9% NaCl. Liver tissues were extracted and stored in NBF for 24 h post fixation, after which they were then transferred to 80% EtOH for storage prior to paraffin embedding, sectioning, and immunological staining. FFPE blocks were sectioned into 5 μm thick slices on regular frost-free plus slides and dried overnight on a slide warmer. After deparaffination, sections were stained with validated antibodies for nitrotyrosine and ZO-1 (tight junctions). […] Nitrotyrosine labeling was detected with 3′3′-Diaminobenzidine (DAB) staining, and nitrotyrosine labeled hepatic sections were imaged at 100× magnification in brightfield using a Nikon Eclipse TS100 microscope with NIS-Elements BR 3.0 software (NIKON Inc, Melville, NY, USA). Slides with ZO-1 staining were imaged in z-stacks obtained at 20× magnification using Olympus FV-1200 confocal microscope with Fluoview software FV10-ASW Version 04.02.02.09 (Olympus Corp Center Valley, PA, USA). Quantification of ZO-1 staining hepatic tight junctions was carried out by unbiassed image analysis calculating area sum of pixel^2 of the green channel staining ZO-lusing CellSens software (Olympus Corp Center Valley, PA, USA).

[1] = tested on: midbrain periaqueductal gray (PAG) cells; test: Single-cell RNA sequencing of midbrain PAG in CFA-induced chronic inflammatory pain model; type: in vivo, rat; details: CFA rats; for expression of FAAH, CORO2A and RPL7L1 (scRNAseq): 100 mg/kg, 1 h
Experimental: Subsequently, we endeavored to explore the single-cell transcriptome of the eVF rat mid-brain PAG region to further define the mechanisms of action (MOA) of chronic inflammatory pain and, ultimately, SRP-001- and ApAP-mediated pain modulation. Left hind paws of Sprague Dawley rats were injected with 150 μl of 50% complete Freund's adjuvant (CFA), freshly diluted with sterile saline on the day of administration, to induce conspicuous long-standing inflammatory pain in the rats' hind paws, along with mechanical hyperalgesia tested using eVF. […].
Single-cell (scRNA) RNA sequencing. For cell nuclei isolation from the midbrain PAG, they were flash-frozen, dissected (by a cryotome), minced into small pieces, homogenized, filtered through 70 strainer and centrifuged. ReadiDrop 7-AAD cell viability dye (Bio-Rad) added, and flow sorted the live ([…]) nuclei in a BioRad Cell Sorter S3e using purity mode. Nuclei were counted using Nexcelom automated Cellometer with acridine orange/propidium iodide (AOPI) stain, and the Nuclei Stock Concentration used so that 10,000 nuclei could be targeted for each sample. […] Post library construction QC was performed using Agilent Bioanalyzer 2100 on High Sensitivity DNA chips, and after verification of sample traces, each library normalized based on the average fragment size, and the concentration determined using Qubit 4.0 fluorometer (Thermo Fisher Scientific). […]
Data processing. […] Read alignment, filtering, barcode counting, peak calling, and counting of both ATAC and GEX molecules were performed using cellranger-arc count. […] Only confidently mapped reads with valid barcodes, unique molecular identifiers (UMIs), and non-PCR duplicated were retained. The overall sequencing quality was evaluated by looking at the summary metrics of the web_summary.html file generated for each sample. […]

NAPQI = test: LC-MS/MS identification of serum NAPQI and novel benzoquinoimine; type: in vivo, mouse; details: CD-1 mice, 600 mg/kg, IP or per os
Experimental: […] (NAPQI) was extracted from the serum by adding 3 volumes of ethyl-acetate to 1 volume of serum and storing them on ice for 30 min, followed by centrifugation at 3000 g for 30 min. Afterward, the supernatant was transferred into mass spectrometry vials and dried under N2 gas. The serum was then washed with another 3 volumes of ethyl-acetate, and the supernatant was added back to the same mass spectrometry vial, followed by evaporation under a stream of N2 gas. The sample was re-suspended with 50 μl of 1:1 MeOH:H2O for LC-MS/MS experimentation. The mass spectrophotometer was operated in multiple reaction monitoring (MRM) mode using positive ion electrospray. NAPQI was detected by monitoring the m/z transition 150.3→108.1. Pure NAPQI analytical standard (10 ng/mL) obtained from Cayman Chemical (Ann Arbor, MI) was used to characterize the full fragmentation pattern of NAPQI and determine the likely fragments.

Compound	centrilobular necrosis / nitrotyrosine staining of liver sections (CD1 mice; CD1 mice, 600 mg/kg PO, 12 h)	liver transaminases ALT and AST (CD1 mice; CD1 mice, 600 mg/kg, serum)	signs of hepatotoxicity (CD1 mice; 600 mg/kg)	animals dead in 48 hours (CD1 mice)	TUNEL-positive apoptotic nuclei in liver sections (CD1 mice; mouse, in vivo, 600 mg/kg)	expression of FAAH, CORO2A and RPL7L1 (scRNAseq) [1]	regulation of FAAH signaling genes ([1]; IPA analysis)	serum NAPQI formation (NAPQI)	hepatic tight junctions by ZO-1 staining (CD1 mice; CD1 mice, 600 mg/kg PO, 12 h, 600 mg/kg)
CCN(CC)C(=O)c1ccccc1S(=O)(=O)NCC(=O)Nc1ccc(O)cc1 [SRP-001, N,N-diethyl-2-[[2-(4-hydroxyanilino)-2-oxo-ethyl]sulfamoyl]benzamide]	lack nitrotyrosine staining	not observed	no signs of hepatotoxicity	none	almost no TUNEL signal	Downregulation	more significantly regulated by SRP-001 than ApAP	lack of formation of the toxic quinonimine metabolite NAPQI; also recorded: lack of production of NAPQI	–
CC(=O)Nc1ccc(O)cc1 [ApAP, acetaminophen]	–	–	hepatotoxicity is evident	75%	–	Downregulation	–	a NAPQI peak is seen; also recorded: significantly enhanced	significant reduction in ZO-1-stained tight junctions; also recorded: marked decrease in ZO-1
